The nature of data set [1]: Cytotoxicity against mouse DLA cell assessed as reduction in cell viability incubated for 3 hrs by tryphan blue dye based assay. Type of data set: toxicity. The following applies: DLA cells.
Data set [2] in a line: Cytotoxicity against mouse EAC cell assessed as reduction in cell viability incubated for 3 hrs by tryphan blue dye based assay. The following applies: EAC (Ehrlich) cells. It is filed as toxicity.
The test system of data set [3] is HL-60. The experiment in a line: Cytotoxicity against human HL-60 cells assessed as inhibition of cell growth at 6.25 to 100 uM incubated for 72 hrs by MTT assay. More on the design: scale not given: the % may be the effect or the level left. Type of data set: functional. Conditions: dose 6.25-100 µM. On the technique in general: Tetrazolium dyes change colour on reduction, which living cells bring about.

Data set [4] deals with KB. Briefly: Cytotoxicity against human KB cells assessed as inhibition of cell growth at 6.25 to 100 uM incubated for 72 hrs by MTT assay. Type of data set: functional. Details: scale not given: the % may be the effect or the level left. Conditions: dose 6.25-100 µM.
Data set [5] concerns KB. Briefly: Cytotoxicity against human KB cells assessed as reduction in cell viability. It is filed as functional, cell-based.
The subject of data set [6] is DU-145. The experiment in a line: Cytotoxicity against human DU-145 cells assessed as inhibition of cell growth incubated for 72 hrs by XTT assay. Type of data set: functional, cell-based. The following applies: DU-145, 72 h.
Data set [7] has as its system KB. The experiment in a line: Cytotoxicity against human KB cells assessed as reduction in cell viability incubated for 3 days. The following applies: 72 h. Type of data set: functional, cell-based.
In data set [8] the test system is Microsporum audouinii. The experiment in a line: Antifungal activity against Microsporum audouinii assessed as inhibition of fungal growth incubated for 48 hrs by serial plate dilution method. It is filed as functional.
Data set [9] has as its system Pseudomonas aeruginosa. Briefly: Antibacterial activity against Pseudomonas aeruginosa assessed as inhibition of bacterial growth incubated for 18 hrs by disc diffusion method. It is filed as functional. For orientation: A growth-free zone around the sample is the usual read-out of agar diffusion tests.
The subject of data set [10] is Trichophyton mentagrophytes. The experiment in a line: Antifungal activity against Trichophyton mentagrophytes assessed as inhibition of fungal growth incubated for 48 hrs by serial plate dilution method. Type of data set: functional.
The test system of data set [11] is Klebsiella pneumoniae. The experiment in a line: Antibacterial activity against Klebsiella pneumoniae assessed as inhibition of bacterial growth incubated for 18 hrs by disc diffusion method. It is filed as functional.
Data set [12] relates to Escherichia coli. The experiment in a line: Antibacterial activity against Escherichia coli MUMC 106 assessed as inhibition of bacterial growth incubated for 18 hrs by disk diffusion method. It is filed as functional.
Data set [13] deals with Escherichia coli. Briefly: Antibacterial activity against Escherichia coli MUMC 106 assessed as increase in inhibition of bacterial growth incubated for 18 hrs by disk diffusion method relative to ciprofloxacin. More on the design: scale not given: the % may be the effect or the level left. It is filed as functional.
For data set [14], the system named is Pseudomonas aeruginosa. Briefly: Antibacterial activity against Pseudomonas aeruginosa MUMC 266 assessed as increase in inhibition of bacterial growth incubated for 18 hrs by disk diffusion method relative to ciprofloxacin. Details: scale not given: the % may be the effect or the level left. It is filed as functional.
The subject of data set [15] is Candida albicans. Briefly: Antifungal activity against Candida albicans MUMC 29 assessed as increase in inhibition of fungal growth incubated for 48 hrs by disk diffusion method relative to griseofulvin. Type of data set: functional. Details: scale not given: the % may be the effect or the level left.
Data set [16] relates to Pseudomonas aeruginosa. The experiment in a line: Antibacterial activity against Pseudomonas aeruginosa MUMC 266 assessed as inhibition of bacterial growth incubated for 18 hrs by disk diffusion method. Type of data set: functional.
Data set [17] deals with Candida albicans. Briefly: Antifungal activity against Candida albicans MUMC 29 assessed as inhibition of fungal growth incubated for 48 hrs by disk diffusion method. It is filed as functional.
Data set [18] deals with Trichophyton mentagrophytes. The experiment in a line: Antimicrobial activity against Trichophyton mentagrophytes MUMC 665 assessed as inhibition of microbial growth by disk diffusion method. Type of data set: functional.
Data set [19] in a line: Cytotoxicity against mouse DLA cell assessed as reduction in cell viability. Type of data set: toxicity, cell-based. The following applies: DLA cells.
A short description of data set [20]: Cytotoxicity against mouse EAC cell assessed as reduction in cell viability. It is filed as toxicity, cell-based. The following applies: EAC (Ehrlich) cells.
Data set [21] has as its system Microsporum audouinii. Briefly: Antimicrobial activity against Microsporum audouinii MUMC 545 assessed as inhibition of microbial growth by disk diffusion method. Type of data set: functional.

Converted amounts (≈) assume the structure as drawn. Where a SMILES comes first, the peptide text is derived from it. [ ]: non-standard residue; d: D form. Met(O) = CS(=O)CC[C@H](N)C(=O)O; Dab = NCC[C@H](N)C(=O)O

Take `O=c1[nH]cc(F)c(=O)[nH]1` [FLUOROURACIL]: the CC50 at 3 h in [1] and in data set [2] was 37.4 µM each time.

Consider `CC[C@H](C)[C@@H]1NC(=O)[C@@H]2CCCN2C(=O)CNC(=O)[C@H](C)NC(=O)[C@H](Cc2ccc(O)cc2)NC1=O` (cyclo(AGPIY)), for which the Activity in [3] and in [4] was <30% each time.

Consider `CC[C@H](C)[C@@H]1NC(=O)[C@@H]2CCCN2C(=O)[C@H](CC(C)C)NC(=O)[C@H](CC[S+](C)[O-])NC(=O)CNC(=O)[C@H]([C@@H](C)O)NC(=O)[C@H](CCC(N)=O)NC(=O)[C@@H]2CCCN2C1=O` (stereo partly drawn) (cyclo(G[Met(O)]LPIPQT)), for which the IC50 in data set [5] stood at 45 µM.

Turning to `CC(C)C[C@@H]1NC(=O)CNC(=O)[C@@H]2CCCN2C(=O)[C@H]([C@@H](C)O)NC(=O)[C@H](C(C)C)NC(=O)[C@H](C)NC(=O)[C@H](CO)NC1=O`, the IC50 in data set [6] was determined as 54.9 µM.

With `CC[C@H](C)[C@@H]1NC(=O)CNC(=O)[C@H](CCSC)NC(=O)CNC(=O)[C@@H]2CCCN2C(=O)[C@H](CC(C)C)NC(=O)[C@H](Cc2ccc(O)cc2)NC1=O` (cyclo(GIYLPGM)), the IC50 in data set [5] and in data set [7] was 16.5 µM in each case.

As to `CC[C@H](C)[C@@H]1NC(=O)[C@@H]2CCCN2C(=O)[C@H](C(C)C)NC(=O)[C@H](C)NC(=O)CNC(=O)[C@@H]2CCCN2C(=O)[C@H](C)NC(=O)[C@H](Cc2ccc(O)cc2)NC1=O` (cyclo(APGAVPIY)), the half-maximal cytotoxic concentration (CC50) at 3 h stood at 6.72 µM in [1] and 11.9 µM in data set [2]. Moreover, the IC50 in data set [5] and in [7] was 0.52 µM in each case.

Consider `COc1cccc2c1C(=O)c1c(O)c3c(c(O)c1C2=O)C[C@@](O)(C(=O)CO)C[C@@H]3O[C@H]1C[C@H](N)[C@H](O)[C@H](C)O1` [DOXORUBICIN], for which the values for the half-maximal inhibitory concentration (IC50) in data set [6] and in [5] were 1.1 µM and 0.02 µM, respectively.

For `CC(C)C[C@@H]1NC(=O)CNC(=O)[C@@H]2CCCN2C(=O)[C@H](CC(N)=O)NC(=O)[C@H](C)NC(=O)[C@H](Cc2ccc(O)cc2)NC(=O)[C@@H]2CCCN2C1=O` [CYCLOMONTANIN D] (cyclo(ANPGLPY)), the MIC in data set [8], in data set [9], in data set [10] and in data set [11] was 6 µg/mL (≈ 8.42 µM) in each case.

`CC[C@H](C)[C@@H]1NC(=O)[C@@H]2CCCN2C(=O)[C@H](CC(C)C)NC(=O)[C@H](CCSC)NC(=O)CNC(=O)[C@H]([C@@H](C)O)NC(=O)[C@H](CCC(N)=O)NC(=O)[C@@H]2CCCN2C1=O` (cyclo(GMLPIPQT)): in data set [5], the IC50 was 0.6 µM.

With `CC(C)C[C@@H]1NC(=O)CNC(=O)[C@H](Cc2ccccc2)NC(=O)[C@H](Cc2ccc(O)cc2)NC(=O)[C@@H]2CCCN2C(=O)CNC1=O` [Cherimolacyclopeptide E] (cyclo(FGLGPY)), the MIC is 12.5 µg/mL (≈ 19.7 µM) in [12], 6 µg/mL (≈ 9.45 µM) in [16] and 6 µg/mL (≈ 9.45 µM) in [17]. Moreover, the values for the Activity in data set [13], in data set [14] and in data set [15] were 12%, 12% and 25%, respectively. For the same compound, the CC50 at 3 h in data set [1] turned out to be 2.76 µM; in [2], 4.96 µM. Also, the half-maximal inhibitory concentration (IC50) in [7] turned out to be 0.017 µM.

For the compound `CC[C@H](C)[C@@H]1NC(=O)[C@H](C)NC(=O)[C@H](C(C)C)NC(=O)[C@H]([C@@H](C)O)NC(=O)CNC(=O)[C@H](Cc2ccc(O)cc2)NC(=O)[C@H](CO)NC(=O)[C@H](CCN)NC(=O)[C@@H]2CCCN2C1=O` (cyclo(AIP[Dab]SYGTV)), the IC50 in [6] amounted to 27.3 µM.

Regarding `CC[C@H](C)[C@@H]1NC(=O)CNC(=O)[C@H](CCSC)NC(=O)CNC(=O)[C@@H]2CCCN2C(=O)[C@H](CCSC)NC(=O)[C@@H]2CCCN2C(=O)[C@H](CC(C)C)NC(=O)[C@H](Cc2ccc(O)cc2)NC1=O` (cyclo(GIYLPMPGM)), the half-inhibitory concentration (IC50) in [7] came to 0.06 µM.

With `CC(C)C[C@@H]1NC(=O)[C@H](Cc2ccc(O)cc2)NC(=O)[C@@H]2CCCN2C(=O)[C@@H]2CCCN2C(=O)[C@H](C(C)C)NC(=O)CNC(=O)[C@@H]2CCCN2C1=O` (cyclo(GVPPYLP)), the Activity in data set [3] and in [4] was <30% each time.

In the case of `CC(C)C[C@@H]1NC(=O)CNC(=O)[C@@H]2CCCN2C(=O)[C@H]([C@@H](C)O)NC(=O)[C@H](C(C)C)NC(=O)[C@H](C)NC(=O)[C@H](CC(N)=O)NC1=O`, the 50% inhibitory concentration (IC50) in [5] stood at 0.97 µM.

For `CC(C)C[C@@H]1NC(=O)[C@H](Cc2c[nH]c3ccccc23)NC(=O)[C@H](C)NC(=O)[C@H](CC(N)=O)NC(=O)[C@@H]2CCCN2C(=O)[C@H]([C@@H](C)O)NC(=O)CNC1=O` (cyclo(AWLGTPN)), the minimal inhibitory concentration (MIC) in data set [18] and in data set [21] was 6 µg/mL each time. Also, the half-maximal cytotoxic concentration (CC50) turned out to be 11.6 µM in data set [19] and 14.1 µM in data set [20].

`CC(C)C[C@@H]1NC(=O)[C@H](C(C)C)NC(=O)[C@H](C(C)C)NC(=O)CNC(=O)[C@H](C)NC(=O)CNC(=O)[C@@H]2CCCN2C1=O` (cyclo(AGVVLPG)): in data set [5], the IC50 was found to be 0.73 µM.

The CC50 is the concentration that lowers cell viability or growth by half. Usually IC50 stands for the midpoint of a concentration-inhibition curve. By MIC is commonly meant the lowest concentration that inhibits growth of the organism.
